Laboratory results reported in US20230310428A1, “EGFR INHIBITOR AND PREPARATION METHOD AND USE THEREOF” (HONGYUN BIOTECH CO., LTD., priority 2020, published 2023).
Where two headings read alike, the source gives them in different places.

Tests used:
Assay in all cases: Growth inhibitory activity of compounds on BaF3 cell lines stably transfected with kinase (MTS, 48 h)
Type in all cases: cell-based
[1] = target: T1, various mutants of kinase EGFR (BaF3 cell lines stably transfected with kinase) (Homo sapiens, UniProt P00533)
T1 construct: other: BaF3 cells stably transfected with EGFR Δ19Del; MTS, 48 h; other: BaF3 cell line stably transfected with EGFR Δ19Del
Procedure, shortened: (§1)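 Transfected cells received compound (max 10 µM, 8 concentrations) for 48 h; MTS readout at 490 nm yielded IC50.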

[2] = target: T2, various mutants of kinase EGFR (BaF3 cell lines stably transfected with kinase) (Homo sapiens, UniProt P00533, T790M/C797S, form not given)
T2 construct: other: BaF3 cells stably transfected with EGFR Δ19Del/T790M/C797S; MTS, 48; other: BaF3 cell line stably transfected with EGFR Δ19Del/T790M/C7
Procedure, shortened: as §1

[3] = target: T3, various mutants of kinase EGFR (BaF3 cell lines stably transfected with kinase) (Homo sapiens, UniProt P00533, T790M, form not given)
T3 construct: other: BaF3 cells stably transfected with EGFR Δ19Del/T790M; MTS, 48 h; other: BaF3 cell line stably transfected with EGFR Δ19Del/T790M; MTS, 48
Procedure, shortened: as §1

[4] = target: T4, various mutants of kinase EGFR (BaF3 cell lines stably transfected with kinase) (Homo sapiens, UniProt P00533, L858R)
T4 construct: expressed in transfected cells; host or cells: BaF3
Procedure, shortened: as §1

[5] = target: T5, various mutants of kinase EGFR (BaF3 cell lines stably transfected with kinase) (Homo sapiens, UniProt P00533, L858R/T790M)
T5 construct: expressed in transfected cells; host or cells: BaF3
Procedure, shortened: as §1

[6] = target: T6, various mutants of kinase EGFR (BaF3 cell lines stably transfected with kinase) (Homo sapiens, UniProt P00533, C797S/L858R/T790M)
T6 construct: expressed in transfected cells; host or cells: BaF3
Procedure, shortened: as §1

[7] = BaF3 cells stably transfected with EGFR Δ19Del, read-out: IC50, growth inhibition, Δ19Del
[8] = BaF3 cells stably transfected with EGFR Δ19Del/T790M/C797S, read-out: IC50, growth inhibition, Δ19Del/T790M/C797S
[9] = BaF3 cells stably transfected with EGFR Δ19Del/T790M, read-out: IC50, growth inhibition, Δ19Del/T790M
[10] = BaF3 cells stably transfected with EGFR L858R, read-out: IC50, growth inhibition, L858R
[11] = BaF3 cells stably transfected with EGFR L858R/T790M, read-out: IC50, growth inhibition, L858R/T790M
[12] = BaF3 cells stably transfected with EGFR L858R/T790M/C797S, read-out: IC50, growth inhibition, L858R/T790M/C797S
[13] = BaF3 cell line stably transfected with EGFR Δ19Del, read-out: Δ19Del growth inhibitory activity IC50
[14] = BaF3 cell line stably transfected with EGFR Δ19Del/T790M/C797S, read-out: Δ19Del/T790M/ C797S growth inhibitory activity IC50
[15] = BaF3 cell line stably transfected with EGFR Δ19Del/T790M, read-out: Δ19Del/ T790M growth inhibitory activity IC50
[16] = BaF3 cell line stably transfected with EGFR L858R, read-out: L858R growth inhibitory activity IC50
[17] = BaF3 cell line stably transfected with EGFR L858R/T790M, read-out: L858R/ T790M growth inhibitory activity IC50
[18] = BaF3 cell line stably transfected with EGFR L858R/T790M/C797S, read-out: L858R/T790M/ C797S growth inhibitory activity IC50

T1 sequence (P00533 with tags, fused parts or gaps DEL746-750): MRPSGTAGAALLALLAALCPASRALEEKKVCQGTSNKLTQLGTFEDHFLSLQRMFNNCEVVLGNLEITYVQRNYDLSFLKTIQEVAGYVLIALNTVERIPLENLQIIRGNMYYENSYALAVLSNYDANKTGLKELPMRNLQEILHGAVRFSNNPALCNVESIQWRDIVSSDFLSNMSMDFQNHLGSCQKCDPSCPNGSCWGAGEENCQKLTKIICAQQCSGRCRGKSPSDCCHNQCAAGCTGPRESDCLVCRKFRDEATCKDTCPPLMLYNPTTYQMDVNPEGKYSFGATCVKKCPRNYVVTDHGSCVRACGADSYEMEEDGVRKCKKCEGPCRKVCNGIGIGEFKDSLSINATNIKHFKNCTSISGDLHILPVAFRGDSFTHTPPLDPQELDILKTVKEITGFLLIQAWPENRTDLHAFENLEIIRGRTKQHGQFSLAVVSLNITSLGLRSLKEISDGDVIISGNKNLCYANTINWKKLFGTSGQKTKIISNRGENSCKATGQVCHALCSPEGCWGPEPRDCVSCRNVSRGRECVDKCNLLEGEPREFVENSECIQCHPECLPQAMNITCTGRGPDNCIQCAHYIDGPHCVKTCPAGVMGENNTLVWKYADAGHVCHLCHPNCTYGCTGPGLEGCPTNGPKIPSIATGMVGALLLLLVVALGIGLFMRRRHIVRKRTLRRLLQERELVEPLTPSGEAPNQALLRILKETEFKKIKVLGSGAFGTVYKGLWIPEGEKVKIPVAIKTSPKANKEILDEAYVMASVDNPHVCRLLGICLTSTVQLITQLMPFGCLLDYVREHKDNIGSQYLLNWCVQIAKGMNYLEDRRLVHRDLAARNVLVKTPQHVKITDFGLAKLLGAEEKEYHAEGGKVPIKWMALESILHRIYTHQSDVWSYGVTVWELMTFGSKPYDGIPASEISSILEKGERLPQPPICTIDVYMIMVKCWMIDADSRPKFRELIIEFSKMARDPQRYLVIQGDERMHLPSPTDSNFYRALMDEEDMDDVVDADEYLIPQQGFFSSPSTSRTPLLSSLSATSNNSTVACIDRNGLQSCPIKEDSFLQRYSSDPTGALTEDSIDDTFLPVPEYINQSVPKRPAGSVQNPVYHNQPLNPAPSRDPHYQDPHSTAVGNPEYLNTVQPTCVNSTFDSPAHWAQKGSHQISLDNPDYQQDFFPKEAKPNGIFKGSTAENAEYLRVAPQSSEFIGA
T6 sequence (P00533 25-1210 T790M/C797S/L858R): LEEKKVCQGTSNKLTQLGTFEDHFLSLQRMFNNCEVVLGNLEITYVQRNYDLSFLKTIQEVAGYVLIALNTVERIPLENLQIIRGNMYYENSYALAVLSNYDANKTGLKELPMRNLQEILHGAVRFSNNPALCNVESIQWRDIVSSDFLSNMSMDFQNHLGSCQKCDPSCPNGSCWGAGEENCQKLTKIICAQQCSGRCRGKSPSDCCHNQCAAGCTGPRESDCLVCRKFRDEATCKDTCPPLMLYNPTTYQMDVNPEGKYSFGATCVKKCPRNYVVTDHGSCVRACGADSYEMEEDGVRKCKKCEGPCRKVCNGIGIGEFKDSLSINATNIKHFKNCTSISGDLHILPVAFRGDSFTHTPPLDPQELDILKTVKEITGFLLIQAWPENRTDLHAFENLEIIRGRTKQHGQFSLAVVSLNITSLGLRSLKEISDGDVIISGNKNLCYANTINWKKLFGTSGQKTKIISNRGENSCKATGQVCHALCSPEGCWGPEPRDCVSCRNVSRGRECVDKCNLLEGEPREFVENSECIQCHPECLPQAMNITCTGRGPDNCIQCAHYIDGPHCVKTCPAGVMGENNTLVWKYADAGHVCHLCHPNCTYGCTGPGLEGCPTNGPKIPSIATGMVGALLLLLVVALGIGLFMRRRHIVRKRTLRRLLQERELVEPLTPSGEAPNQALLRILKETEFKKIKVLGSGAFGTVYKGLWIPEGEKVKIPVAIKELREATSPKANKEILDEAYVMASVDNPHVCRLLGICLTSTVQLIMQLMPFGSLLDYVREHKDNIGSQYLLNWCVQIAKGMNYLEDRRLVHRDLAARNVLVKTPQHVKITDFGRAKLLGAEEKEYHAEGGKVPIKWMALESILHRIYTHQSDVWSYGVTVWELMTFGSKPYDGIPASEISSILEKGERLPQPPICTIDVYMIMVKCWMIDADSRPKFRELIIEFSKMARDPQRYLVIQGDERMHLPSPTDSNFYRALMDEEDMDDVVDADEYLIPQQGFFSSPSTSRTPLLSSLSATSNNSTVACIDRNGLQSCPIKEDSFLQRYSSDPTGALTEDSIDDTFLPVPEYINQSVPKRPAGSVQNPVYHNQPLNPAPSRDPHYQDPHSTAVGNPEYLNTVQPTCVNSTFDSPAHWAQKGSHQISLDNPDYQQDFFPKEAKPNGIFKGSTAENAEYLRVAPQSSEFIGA
T4 sequence (P00533 25-1210 L858R): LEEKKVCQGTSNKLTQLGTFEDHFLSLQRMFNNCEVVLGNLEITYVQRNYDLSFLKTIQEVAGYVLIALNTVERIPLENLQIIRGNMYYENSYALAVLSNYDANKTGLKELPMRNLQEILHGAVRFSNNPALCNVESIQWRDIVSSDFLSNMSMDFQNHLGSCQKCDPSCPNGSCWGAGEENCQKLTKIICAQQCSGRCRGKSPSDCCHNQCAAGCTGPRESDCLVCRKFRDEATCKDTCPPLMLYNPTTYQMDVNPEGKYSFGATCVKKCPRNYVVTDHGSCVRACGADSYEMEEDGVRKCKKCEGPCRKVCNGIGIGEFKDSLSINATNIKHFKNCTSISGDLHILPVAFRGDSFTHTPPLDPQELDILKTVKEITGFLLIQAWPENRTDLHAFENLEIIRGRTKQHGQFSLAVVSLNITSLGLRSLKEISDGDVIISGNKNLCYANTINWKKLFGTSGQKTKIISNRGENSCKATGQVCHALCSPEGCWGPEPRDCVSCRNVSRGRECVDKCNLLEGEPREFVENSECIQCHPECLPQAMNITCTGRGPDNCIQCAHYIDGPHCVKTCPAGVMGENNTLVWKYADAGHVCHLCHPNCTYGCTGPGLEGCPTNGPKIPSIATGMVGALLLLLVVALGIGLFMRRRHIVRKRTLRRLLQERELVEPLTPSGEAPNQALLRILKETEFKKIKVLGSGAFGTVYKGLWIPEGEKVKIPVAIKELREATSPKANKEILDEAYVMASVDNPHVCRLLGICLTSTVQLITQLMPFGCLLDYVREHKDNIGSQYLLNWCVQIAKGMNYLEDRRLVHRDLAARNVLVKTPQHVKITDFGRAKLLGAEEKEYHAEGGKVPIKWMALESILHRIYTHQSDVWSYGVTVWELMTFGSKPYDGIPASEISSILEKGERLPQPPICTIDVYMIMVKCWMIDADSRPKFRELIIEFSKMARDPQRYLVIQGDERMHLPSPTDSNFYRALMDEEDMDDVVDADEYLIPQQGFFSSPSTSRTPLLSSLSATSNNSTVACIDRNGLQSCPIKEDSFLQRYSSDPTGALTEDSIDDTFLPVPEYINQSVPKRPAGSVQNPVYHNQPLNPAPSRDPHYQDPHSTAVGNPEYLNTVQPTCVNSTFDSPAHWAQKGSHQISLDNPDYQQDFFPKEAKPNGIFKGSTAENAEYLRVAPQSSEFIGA
T5 sequence (P00533 25-1210 T790M/L858R): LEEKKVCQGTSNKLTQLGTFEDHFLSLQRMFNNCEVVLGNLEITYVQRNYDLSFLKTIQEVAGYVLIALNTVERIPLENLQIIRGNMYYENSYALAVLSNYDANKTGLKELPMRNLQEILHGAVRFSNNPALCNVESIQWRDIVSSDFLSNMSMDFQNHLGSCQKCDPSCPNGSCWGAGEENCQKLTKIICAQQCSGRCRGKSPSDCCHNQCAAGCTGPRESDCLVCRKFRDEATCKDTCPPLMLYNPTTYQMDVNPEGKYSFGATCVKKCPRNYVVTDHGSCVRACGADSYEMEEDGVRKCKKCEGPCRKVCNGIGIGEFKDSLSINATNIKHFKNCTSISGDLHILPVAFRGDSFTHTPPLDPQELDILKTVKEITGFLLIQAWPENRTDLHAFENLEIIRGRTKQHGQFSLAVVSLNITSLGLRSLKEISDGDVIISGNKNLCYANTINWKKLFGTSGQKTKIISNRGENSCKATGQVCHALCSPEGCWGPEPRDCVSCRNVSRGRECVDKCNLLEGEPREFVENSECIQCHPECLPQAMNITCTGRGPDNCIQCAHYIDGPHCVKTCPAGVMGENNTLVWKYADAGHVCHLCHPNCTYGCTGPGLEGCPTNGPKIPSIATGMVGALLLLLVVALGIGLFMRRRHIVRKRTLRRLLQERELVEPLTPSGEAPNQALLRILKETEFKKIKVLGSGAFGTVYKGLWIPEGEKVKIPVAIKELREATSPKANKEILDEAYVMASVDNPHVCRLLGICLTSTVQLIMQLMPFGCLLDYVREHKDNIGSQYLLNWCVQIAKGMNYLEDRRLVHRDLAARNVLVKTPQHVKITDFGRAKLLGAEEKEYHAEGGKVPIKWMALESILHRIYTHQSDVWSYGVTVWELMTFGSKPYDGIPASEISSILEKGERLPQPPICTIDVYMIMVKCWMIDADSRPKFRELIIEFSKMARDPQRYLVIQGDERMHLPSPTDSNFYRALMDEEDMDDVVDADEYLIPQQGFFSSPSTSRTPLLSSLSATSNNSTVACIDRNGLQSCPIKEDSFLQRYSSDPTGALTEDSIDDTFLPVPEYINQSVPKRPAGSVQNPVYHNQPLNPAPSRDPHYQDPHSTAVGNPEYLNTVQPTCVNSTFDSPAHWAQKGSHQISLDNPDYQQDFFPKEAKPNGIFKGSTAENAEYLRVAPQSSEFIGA

Compound | IC50 [1, 7] [nM] | IC50 [2, 8] [nM] | IC50 [3, 9] [nM] | IC50 [4, 10] [nM] | IC50 [5, 11] [nM] | IC50 [6, 12] [nM] | IC50 [1, 13] [nM] | IC50 [2, 14] [nM] | IC50 [3, 15] [nM] | IC50 [4, 16] [nM] | IC50 [5, 17] [nM] | IC50 [6, 18] [nM]
CCc1cc(Nc2ncc(Cl)c(Nc3ccc4nccnc4c3N(C)S(=O)(=O)C(C)C)n2)c(OC)cc1N1CCN(C)CC1 [Compound I-255] | 50 to 500 | ≤ 50 | ≤ 50 | 50 to 500 | 50 to 500 | 50 to 500 |  |  |  |  |  | 
CCc1cc(Nc2ncc(Cl)c(Nc3ccc4nccnc4c3N(C)S(C)(=O)=O)n2)c(OC(F)(F)F)cc1N1CCC(N2CCN(C)CC2)CC1 [Compound I-22] | 50 to 500 | ≤ 50 | ≤ 50 | 50 to 500 | 50 to 500 | ≤ 50 |  |  |  |  |  | 
CCc1cc(Nc2ncc(CC)c(Nc3ccc4nccnc4c3N(C)S(C)(=O)=O)n2)c(OC(F)(F)F)cc1N1CCC(N2CCN(C)CC2)CC1 [Compound I-321] |  |  |  |  |  |  | 50 to 500 | ≤ 50 | ≤ 50 | 50 to 500 | 50 to 500 | 50 to 500
CCN(c1c(Nc2nc(Nc3cc(C)c(N4CCC(N5CCN(C)CC5)CC4)nc3OC)ncc2Cl)ccc2nccnc12)S(C)(=O)=O [Compound I-226] | 500 to 2500 | 500 to 2500 | 50 to 500 | 500 to 2500 | 50 to 500 | 500 to 2500 |  |  |  |  |  | 
CC1CN(C)CCc2ccc(Nc3ncc(Br)c(Nc4ccc5nccnc5c4N(C)S(C)(=O)=O)n3)cc21 (stereo not drawn) [Compound I-93] | ≤ 50 | ≤ 50 | ≤ 50 | ≤ 50 | ≤ 50 | ≤ 50 |  |  |  |  |  | 
CCc1cc(Nc2ncc(C3CC3)c(Nc3ccc4nccnc4c3N(C)S(C)(=O)=O)n2)c(OC)cc1N1CCC(N(C)C)CC1 [Compound I-273] | ≤ 50 | ≤ 50 | ≤ 50 | ≤ 50 | ≤ 50 | ≤ 50 |  |  |  |  |  | 
CCc1cc(Nc2ncc(Cl)c(Nc3ccc4nccnc4c3N(C)S(=O)(=O)C3CC3)n2)c(OC)cc1N1CCC(N(C)C)CC1 [Compound I-122] | ≤ 50 | ≤ 50 | ≤ 50 | ≤ 50 | ≤ 50 | ≤ 50 |  |  |  |  |  | 
CCc1cc(Nc2ncc(Cl)c(Nc3ccc4nccnc4c3N(C)S(=O)(=O)C(F)(F)F)n2)c(OC)cc1N1CCC(N(C)C)CC1 [Compound I-132] | 500 to 2500 | ≤ 50 | 50 to 500 | 500 to 2500 | 50 to 500 | 50 to 500 |  |  |  |  |  | 
CCc1cc(Nc2nc(Nc3ccc4nccnc4c3N(C)S(C)(=O)=O)c3cc[nH]c3n2)c(OC(F)(F)F)cc1N1CCC(N2CCN(C)CC2)CC1 [II-2-8] |  |  |  |  |  |  | 50 to 500 | ≤ 50 | ≤ 50 | 50 to 500 | 50 to 500 | ≤ 50
CCc1cc(Nc2ncc(Br)c(Nc3ccc4nccnc4c3N(CC)S(C)(=O)=O)n2)c(OC)cc1N1CCC(N2CCN(C)CC2)CC1 [Compound I-95] | ≤ 50 | ≤ 50 | ≤ 50 | ≤ 50 | ≤ 50 | ≤ 50 |  |  |  |  |  | 
CCc1cc(Nc2nc(Nc3ccc4nccnc4c3N(C)S(C)(=O)=O)c3sccc3n2)c(OC)nc1N1CCC(N2CCN(C)CC2)CC1 [II-1-6] |  |  |  |  |  |  | 500 to 2500 | 50 to 500 | 500 to 2500 | 500 to 2500 | 50 to 500 | 50 to 500
CCN(c1c(Nc2nc(Nc3cc(CC4CC4)c(N4CCC(N5CCN(C)CC5)CC4)cc3OC)ncc2Br)ccc2nccnc12)S(C)(=O)=O [Compound I-213] | ≤ 50 | ≤ 50 | ≤ 50 | ≤ 50 | ≤ 50 | ≤ 50 |  |  |  |  |  | 
CCc1cc(Nc2ncc(Br)c(Nc3ccc4nccnc4c3N(C)S(C)(=O)=O)n2)c(OC)cc1N1CCC2(CC1)CC(N(C)C)C2 [Compound I-399] |  |  |  |  |  |  | 50 to 500 | ≤ 50 | 50 to 500 | 50 to 500 | 50 to 500 | ≤ 50
CCc1cc(Nc2ncc(Br)c(Nc3ccc4nccnc4c3N(CC)S(C)(=O)=O)n2)c(OC(F)(F)F)cc1N1CCC(N2CCN(C)CC2)CC1 [Compound I-96] | 50 to 500 | ≤ 50 | 50 to 500 | 50 to 500 | 50 to 500 | ≤ 50 |  |  |  |  |  | 
COc1cc(N2CCC(N(C)C)CC2)c(C)cc1Nc1ncc(C2CC2)c(Nc2ccc3nccnc3c2N(C)S(C)(=O)=O)n1 [Compound I-272] | ≤ 50 | ≤ 50 | ≤ 50 | ≤ 50 | ≤ 50 | ≤ 50 |  |  |  |  |  | 
CCS(=O)(=O)N(C)c1c(Nc2nc(Nc3cc(C)c(N4CCC(N5CCN(C)CC5)CC4)cc3OC)ncc2Cl)ccc2nccnc12 [Compound I-114] | ≤ 50 | ≤ 50 | ≤ 50 | ≤ 50 | ≤ 50 | ≤ 50 |  |  |  |  |  | 
CCc1cc(Nc2ncc([N+](=O)[O-])c(Nc3ccc4nccnc4c3N(C)S(C)(=O)=O)n2)c(OC)cc1N1CCC(N2CCN(C)CC2)CC1 [Compound I-32] | ≤ 50 | ≤ 50 | ≤ 50 | ≤ 50 | ≤ 50 | ≤ 50 |  |  |  |  |  | 
CCc1cc(Nc2ncc(Br)c(Nc3ccc4nccnc4c3N(C)S(=O)(=O)C(F)(F)F)n2)c(OC)cc1N1CCC(N(C)C)CC1 [Compound I-127] | 500 to 2500 | ≤ 50 | 50 to 500 | 500 to 2500 | 50 to 500 | 50 to 500 |  |  |  |  |  | 
COc1cc(N2CCC(N(C)C)CC2)c(C)cc1Nc1ncc(C(F)(F)F)c(Nc2ccc3nccnc3c2N(C)S(C)(=O)=O)n1 [Compound I-205] | ≤ 50 | ≤ 50 | ≤ 50 | ≤ 50 | ≤ 50 | ≤ 50 |  |  |  |  |  | 
CCc1cc(Nc2ncc(C)c(Nc3ccc4nccnc4c3N(C)S(C)(=O)=O)n2)c(OC)cc1N1CCC(N(C)C)CC1 [Compound I-279] | ≤ 50 | ≤ 50 | ≤ 50 | ≤ 50 | ≤ 50 | ≤ 50 |  |  |  |  |  | 
COc1cc(N2CCC(N3CCN(C)CC3)CC2)ccc1Nc1ncc(Br)c(Nc2ccc3nccnc3c2NS(=O)(=O)C(C)C)n1 [Compound I-413] |  |  |  |  |  |  | 50 to 500 | 50 to 500 | 50 to 500 | 50 to 500 | 50 to 500 | 50 to 500
CCc1cc(Nc2ncc(C(F)(F)F)c(Nc3ccc4nccnc4c3N(C)S(C)(=O)=O)n2)c(OC)nc1N1CCC(N2CCN(C)CC2)CC1 [Compound I-199] | 50 to 500 | ≤ 50 | ≤ 50 | ≤ 50 | ≤ 50 | ≤ 50 |  |  |  |  |  | 
COc1ccc(N2CCC(O)CC2)cc1Nc1ncc(Br)c(Nc2ccc3nccnc3c2N(C)S(=O)(=O)C(C)C)n1 [Compound I-376] |  |  |  |  |  |  | 50 to 500 | ≤ 50 | 50 to 500 | 50 to 500 | ≤ 50 | ≤ 50
COc1cc(N2CCC(N3CCN(C)CC3)CC2)c(Cc2ccccc2)cc1Nc1ncc(C(F)(F)F)c(Nc2ccc3nccnc3c2N(C)S(C)(=O)=O)n1 [Compound I-204] | 500 to 2500 | 500 to 2500 | 500 to 2500 | 500 to 2500 | 500 to 2500 | 500 to 2500 |  |  |  |  |  | 
CCc1cc(Nc2ncc(Br)c(Nc3ccc4nccnc4c3NS(C)(=O)=O)n2)c(OC)nc1N1CCC(N2CCN(C)CC2)CC1 [Compound I-404] |  |  |  |  |  |  | 50 to 500 | ≤ 50 | ≤ 50 | ≤ 50 | ≤ 50 | ≤ 50
COc1cc(N2CCOCC2)ccc1Nc1ncc(Br)c(Nc2ccc3nccnc3c2N(C)S(C)(=O)=O)n1 [Compound I-45] | 50 to 500 | ≤ 50 | 50 to 500 | 50 to 500 | 50 to 500 | ≤ 50 |  |  |  |  |  | 
